Reference: patent US20250353891A1 (MEDIMMUNE LIMITED, priority 2022, published 2025)
Starred links: 1 amine or outer side, 2 acyl side, 3 side chain; linkers in the order of their positions; H or OH if unused. Non-standard residues stand in square brackets, D forms with d. Residues, ends and D or L forms follow the SMILES beside them. Groups on a side chain read outwards from the residue. *: point of attachment. γGlu = O=C(O)[C@H](CCC(=O)[*:2])N[*:1]; Stearoyl = CCCCCCCCCCCCCCCCCC(=O)*; Palmitoyl = CCCCCCCCCCCCCCCC(=O)*; αMeF = C[C@](N)(Cc1ccccc1)C(=O)O; Myristoyl = CCCCCCCCCCCCCC(=O)*; PEG2 = NCCOCCOCCC(=O)O; Aib = CC(C)(N)C(=O)O

Assays:
[1] = target: human glucagon receptor (hGCGR) (Homo sapiens, UniProt P47871); test: cAMP production (HTRF) in CHO cells expressing hGCGR; type: cell-based; design: expressed in transfected cells; conditions: Table 6, peptides modified at position 17; cAMP in CHO hGCGR cells; geometric mean; read-out: hGluc-R EC50
Sequence of human glucagon receptor (hGCGR) (P47871 26-477): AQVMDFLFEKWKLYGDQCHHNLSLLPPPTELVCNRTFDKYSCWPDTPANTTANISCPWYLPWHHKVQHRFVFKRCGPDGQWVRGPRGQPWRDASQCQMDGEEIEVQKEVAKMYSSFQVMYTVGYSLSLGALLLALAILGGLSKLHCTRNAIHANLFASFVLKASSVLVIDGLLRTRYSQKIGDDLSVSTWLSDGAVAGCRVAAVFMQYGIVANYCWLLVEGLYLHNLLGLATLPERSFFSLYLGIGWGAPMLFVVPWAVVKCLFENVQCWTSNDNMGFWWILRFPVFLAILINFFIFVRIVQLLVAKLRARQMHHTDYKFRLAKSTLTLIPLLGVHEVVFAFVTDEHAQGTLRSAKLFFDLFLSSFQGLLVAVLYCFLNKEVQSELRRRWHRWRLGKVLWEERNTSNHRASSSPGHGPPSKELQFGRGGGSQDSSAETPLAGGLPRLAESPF
Procedure, shortened: (§1)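 Read-out: HTRF cAMP (anti-cAMP cryptate donor, cAMP-d2 acceptor in conjugate/lysis buffer), converted to % Delta F and fitted by 4-parameter logistic for EC50. Cell densities were 1×10^5 cells/mL (hGLP-1R) or 2×10^5 cells/mL (hGCGR). Stimulation lasted 30 min at room temperature.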

[2] = target: human GLP-1 receptor (hGLP-1R) (Homo sapiens, UniProt P43220); test: cAMP production (HTRF) in CHO cells expressing hGLP-1R; type: cell-based; design: expressed in transfected cells; conditions: for EC50: Table 6, peptides modified at position 17, cAMP in CHO hGLP-1R cells, geometric mean, read-out: hGLP-1R EC50; for % Relative Potency Ratio: Table 6, % GLP-1R activity relative to GLP-1 / % GlucR activity relative to glucagon
Sequence of human GLP-1 receptor (hGLP-1R) (P43220 24-463): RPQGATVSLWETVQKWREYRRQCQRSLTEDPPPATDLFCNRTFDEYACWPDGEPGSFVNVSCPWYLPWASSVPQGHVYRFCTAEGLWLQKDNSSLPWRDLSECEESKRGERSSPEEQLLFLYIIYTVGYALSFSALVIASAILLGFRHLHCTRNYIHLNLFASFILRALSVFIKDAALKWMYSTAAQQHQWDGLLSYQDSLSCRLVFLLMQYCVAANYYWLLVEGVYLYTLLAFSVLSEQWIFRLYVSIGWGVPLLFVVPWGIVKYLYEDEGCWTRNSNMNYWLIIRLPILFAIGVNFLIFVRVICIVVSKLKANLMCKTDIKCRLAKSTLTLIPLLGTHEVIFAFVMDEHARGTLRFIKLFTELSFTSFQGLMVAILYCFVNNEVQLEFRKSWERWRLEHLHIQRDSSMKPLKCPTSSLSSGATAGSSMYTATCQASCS
Procedure, shortened: as §1

Row | Compound | EC50 [1] [pM] | EC50 [2] [pM] | % Relative Potency Ratio [2]
1 | CCCCCCCCCCCCCCCC(=O)N[C@@H](CCC(=O)N[C@@H](CCC(=O)NCCOCCOCCC(=O)NCCOCCOCCC(=O)NCCCC[C@H](NC(=O)[C@H](CO)NC(=O)[C@H](CC(=O)O)NC(=O)[C@H](CC(C)C)NC(=O)[C@@H](NC(=O)[C@H](CCCCN)NC(=O)[C@H](CO)NC(=O)[C@@H](NC(=O)[C@H](CC(=O)O)NC(=O)[C@H](CO)NC(=O)[C@@H](NC(=O)[C@](C)(Cc1ccccc1)NC(=O)[C@H](CO)NC(=O)CNC(=O)[C@H](CCC(N)=O)NC(=O)[C@H](CO)NC(=O)[C@@H](N)Cc1c[nH]cn1)[C@@H](C)O)C(C)C)[C@@H](C)CC)C(=O)N[C@@H](C)C(=O)N[C@@H](C)C(=O)N[C@@H](CCC(N)=O)C(=O)N[C@@H](CC(=O)O)C(=O)N[C@@](C)(Cc1ccccc1)C(=O)N[C@H](C(=O)N[C@@H](CCC(=O)O)C(=O)N[C@H](C(=O)N[C@H](C(=O)N[C@@H](C)C(=O)N[C@@H](CC(N)=O)C(N)=O)[C@@H](C)CC)[C@@H](C)CC)C(C)C)C(=O)O)C(=O)O [Peptide 114] (H-HSQGS[αMeF]TSDVSKILDSK([PEG2-PEG2-γGlu-γGlu-Palmitoyl])AAQD[αMeF]VEIIAN-NH2; N-terminus assumed) | 2.65 | 3.65 | 1.4
2 | CCCCCCCCCCCCCCCC(=O)N[C@@H](CCC(=O)N[C@@H](CCC(=O)NCCOCCOCCC(=O)NCCOCCOCCC(=O)NCCCC[C@H](NC(=O)[C@H](CO)NC(=O)[C@H](CC(=O)O)NC(=O)[C@H](CC(C)C)NC(=O)[C@@H](NC(=O)[C@H](CCCCN)NC(=O)[C@H](CO)NC(=O)[C@@H](NC(=O)[C@H](CC(=O)O)NC(=O)[C@H](CO)NC(=O)[C@@H](NC(=O)[C@](C)(Cc1ccccc1)NC(=O)[C@H](CO)NC(=O)CNC(=O)[C@H](CCC(N)=O)NC(=O)[C@H](CO)NC(=O)[C@@H](N)Cc1c[nH]cn1)[C@@H](C)O)C(C)C)[C@@H](C)CC)C(=O)N[C@@H](C)C(=O)N[C@@H](C)C(=O)N[C@@H](CCC(N)=O)C(=O)N[C@@H](CC(=O)O)C(=O)N[C@@](C)(Cc1ccccc1)C(=O)N[C@H](C(=O)N[C@@H](CCC(=O)O)C(=O)N[C@@H](Cc1c[nH]c2ccccc12)C(=O)N[C@H](C(=O)N[C@H](C(=O)N[C@@H](CC(N)=O)C(=O)N[C@H](C(N)=O)[C@@H](C)O)[C@@H](C)CC)[C@@H](C)CC)C(C)C)C(=O)O)C(=O)O [Peptide 116] (H-HSQGS[αMeF]TSDVSKILDSK([PEG2-PEG2-γGlu-γGlu-Palmitoyl])AAQD[αMeF]VEWIINT-NH2; N-terminus assumed) | 10.3 | 24.3 | 0.8
3 | CCCCCCCCCCCCCCCC(=O)N[C@@H](CCC(=O)N[C@@H](CCC(=O)NCCOCCOCCC(=O)NCCOCCOCCC(=O)NCCCC[C@H](NC(=O)[C@H](CO)NC(=O)[C@H](CC(=O)O)NC(=O)[C@H](CC(C)C)NC(=O)[C@@H](NC(=O)[C@H](CCCCN)NC(=O)[C@H](CO)NC(=O)[C@@H](NC(=O)[C@H](CC(=O)O)NC(=O)[C@H](CO)NC(=O)[C@@H](NC(=O)[C@](C)(Cc1ccccc1)NC(=O)[C@H](CO)NC(=O)CNC(=O)[C@H](CCC(N)=O)NC(=O)[C@H](CO)NC(=O)[C@@H](N)Cc1c[nH]cn1)[C@@H](C)O)C(C)C)[C@@H](C)CC)C(=O)N[C@@H](C)C(=O)N[C@@H](C)C(=O)N[C@@H](CCC(N)=O)C(=O)N[C@@H](CC(=O)O)C(=O)N[C@@](C)(Cc1ccccc1)C(=O)N[C@H](C(=O)N[C@@H](CCC(N)=O)C(=O)NC(C)(C)C(=O)N[C@H](C(=O)N[C@H](C(=O)N[C@@H](CC(N)=O)C(=O)N[C@H](C(N)=O)[C@@H](C)O)[C@@H](C)CC)[C@@H](C)CC)C(C)C)C(=O)O)C(=O)O [Peptide 118] (H-HSQGS[αMeF]TSDVSKILDSK([PEG2-PEG2-γGlu-γGlu-Palmitoyl])AAQD[αMeF]VQ[Aib]IINT-NH2) | 1.2 | 1.07 | 2.2
4 | CCCCCCCCCCCCCC(=O)N[C@@H](CCC(=O)N[C@@H](CCC(=O)NCCOCCOCCC(=O)NCCOCCOCCC(=O)NCCCC[C@H](NC(=O)[C@H](CO)NC(=O)[C@H](CC(=O)O)NC(=O)[C@H](CC(C)C)NC(=O)[C@@H](NC(=O)[C@H](CCCCN)NC(=O)[C@H](CO)NC(=O)[C@@H](NC(=O)[C@H](CC(=O)O)NC(=O)[C@H](CO)NC(=O)[C@@H](NC(=O)[C@](C)(Cc1ccccc1)NC(=O)[C@H](CO)NC(=O)CNC(=O)[C@H](CCC(N)=O)NC(=O)[C@H](CO)NC(=O)[C@@H](N)Cc1c[nH]cn1)[C@@H](C)O)C(C)C)[C@@H](C)CC)C(=O)N[C@@H](C)C(=O)N[C@@H](C)C(=O)N[C@@H](CCC(N)=O)C(=O)N[C@@H](CC(=O)O)C(=O)N[C@@](C)(Cc1ccccc1)C(=O)N[C@H](C(=O)N[C@@H](CCC(N)=O)C(=O)NC(C)(C)C(=O)N[C@H](C(=O)N[C@H](C(=O)N[C@@H](CC(N)=O)C(=O)N[C@H](C(N)=O)[C@@H](C)O)[C@@H](C)CC)[C@@H](C)CC)C(C)C)C(=O)O)C(=O)O [Peptide 119] (H-HSQGS[αMeF]TSDVSKILDSK([PEG2-PEG2-γGlu-γGlu-Myristoyl])AAQD[αMeF]VQ[Aib]IINT-NH2; N-terminus assumed) | 1.7 | 1.39 | 2.4
5 | CCCCCCCCCCCCCCCCCC(=O)N[C@@H](CCC(=O)NCCOCCOCCC(=O)NCCOCCOCCC(=O)NCCCC[C@H](NC(=O)[C@H](CO)NC(=O)[C@H](CC(=O)O)NC(=O)[C@H](CC(C)C)NC(=O)[C@@H](NC(=O)[C@H](CCCCN)NC(=O)[C@H](CO)NC(=O)[C@@H](NC(=O)[C@H](CC(=O)O)NC(=O)[C@H](CO)NC(=O)[C@@H](NC(=O)[C@](C)(Cc1ccccc1)NC(=O)[C@H](CO)NC(=O)CNC(=O)[C@H](CCC(N)=O)NC(=O)[C@H](CO)NC(=O)[C@@H](N)Cc1c[nH]cn1)[C@@H](C)O)C(C)C)[C@@H](C)CC)C(=O)N[C@@H](C)C(=O)N[C@@H](C)C(=O)N[C@@H](CCC(N)=O)C(=O)N[C@@H](CC(=O)O)C(=O)N[C@@](C)(Cc1ccccc1)C(=O)N[C@H](C(=O)N[C@@H](CCC(N)=O)C(=O)NC(C)(C)C(=O)N[C@H](C(=O)N[C@H](C(=O)N[C@@H](CC(N)=O)C(=O)N[C@H](C(N)=O)[C@@H](C)O)[C@@H](C)CC)[C@@H](C)CC)C(C)C)C(=O)O [Peptide 120] (H-HSQGS[αMeF]TSDVSKILDSK([PEG2-PEG2-γGlu-Stearoyl])AAQD[αMeF]VQ[Aib]IINT-NH2; N-terminus assumed) | 2.62 | 1.81 | 2.9
6 | CCCCCCCCCCCCCCCC(=O)N[C@@H](CCC(=O)NCCOCCOCCC(=O)NCCOCCOCCC(=O)NCCCC[C@H](NC(=O)[C@H](CO)NC(=O)[C@H](CC(=O)O)NC(=O)[C@H](CC(C)C)NC(=O)[C@@H](NC(=O)[C@H](CCCCN)NC(=O)[C@H](CO)NC(=O)[C@@H](NC(=O)[C@H](CC(=O)O)NC(=O)[C@H](CO)NC(=O)[C@@H](NC(=O)[C@](C)(Cc1ccccc1)NC(=O)[C@H](CO)NC(=O)CNC(=O)[C@H](CCC(N)=O)NC(=O)[C@H](CO)NC(=O)[C@@H](N)Cc1c[nH]cn1)[C@@H](C)O)C(C)C)[C@@H](C)CC)C(=O)N[C@@H](C)C(=O)N[C@@H](C)C(=O)N[C@@H](CCC(N)=O)C(=O)N[C@@H](CC(=O)O)C(=O)N[C@@](C)(Cc1ccccc1)C(=O)N[C@H](C(=O)N[C@@H](CCC(N)=O)C(=O)NC(C)(C)C(=O)N[C@H](C(=O)N[C@H](C(=O)N[C@@H](CC(N)=O)C(=O)N[C@H](C(N)=O)[C@@H](C)O)[C@@H](C)CC)[C@@H](C)CC)C(C)C)C(=O)O [Peptide 121] (H-HSQGS[αMeF]TSDVSKILDSK([PEG2-PEG2-γGlu-Palmitoyl])AAQD[αMeF]VQ[Aib]IINT-NH2; N-terminus assumed) | 1.2 | 1.5 | 1.6
7 | CCCCCCCCCCCCCCCC(=O)N[C@@H](CCC(=O)N[C@@H](CCC(=O)NCCOCCOCCC(=O)NCCOCCOCCC(=O)NCCCC[C@H](NC(=O)[C@H](CO)NC(=O)[C@H](CC(=O)O)NC(=O)[C@H](CC(C)C)NC(=O)[C@@H](NC(=O)[C@H](CCCCN)NC(=O)[C@H](CO)NC(=O)[C@@H](NC(=O)[C@H](CC(=O)O)NC(=O)[C@H](CO)NC(=O)[C@@H](NC(=O)[C@](C)(Cc1ccccc1)NC(=O)[C@H](CO)NC(=O)CNC(=O)[C@H](CCC(N)=O)NC(=O)C(C)(C)NC(=O)[C@@H](N)Cc1c[nH]cn1)[C@@H](C)O)C(C)C)[C@@H](C)CC)C(=O)N[C@@H](C)C(=O)N[C@@H](C)C(=O)N[C@@H](CCC(N)=O)C(=O)N[C@@H](CC(=O)O)C(=O)N[C@@](C)(Cc1ccccc1)C(=O)N[C@H](C(=O)N[C@@H](CCC(N)=O)C(=O)N[C@H](C(=O)N[C@H](C(=O)N[C@@H](C)C(=O)N[C@@H](CC(N)=O)C(N)=O)[C@@H](C)CC)[C@@H](C)CC)C(C)C)C(=O)O)C(=O)O [Peptide 123] (H-H[Aib]QGS[αMeF]TSDVSKILDSK([PEG2-PEG2-γGlu-γGlu-Palmitoyl])AAQD[αMeF]VQIIAN-NH2; N-terminus assumed) | 12.9 |  | 51.4
